Measured values taken from US20250120987A1, “METHOD FOR TREATING CANCER USING HUMAN MIT[…] ENZYME 2 INHIBITOR” (priority 2023, published 2025).
pIC50: −log10 of the molar value.

Columns and labels:
[1] = system: MV4-11 cells; test: Cell survival assay; format: cell-based, human
Method: (§1) In the following assay, therefore, the NazEA dosage of 150 μM was used.

[2] = system: THP-1 cells; test: Cell survival assay; format: cell-based, human
Method: as §1

[3] = system: HL-60 cells; test: Cell survival assay; format: cell-based, human
Method: as §1

[4] = system: HL-60 cells; test: Oxygen consumption rate of AML cells; format: cell-based, human; conditions: 150 μM
[5] = system: HL-60 cells; test: Mass spectrometric analysis of metabolic intermediates; format: cell-based, human; conditions: 150 μM, UPLC-MS
Method: The Na2EA-treated HL-60 cells (1×10^7 cells) and the HL-60 cells untreated with NazEA (1×10^7 cells) in example 10 were taken, added into 1 mL of 80% methanol, and centrifuged at 4° C. and 12,000×g for 10 minutes. After the supernatants were evaporated with nitrogen gas, an analysis was performed using a Waters ultra-high performance liquid chromatograph coupled with Waters Xevo TQ-S MS (Waters Corp. Milford, MA, USA).

[6] = system: THP-1 cells; test: Animal test, ASID mice transplanted with THP-1 cells; format: in vivo; conditions: 4 mg/kg, intravenous, day 21
Method: (§2) A plurality of 8-week-old ASID mice (or mice with advanced severe immunodeficiency, or more specifically NOD.Cg-Prkde^scidIl2rg^tm1Wjl/YckNarl mice) were randomly divided into 6 groups. Each group of mice was intravenously injected with one of a plurality of differently treated AML cell variants at a frequency of 5 days per week for 4 weeks. The AML cell variants injected into the 6 groups of mice are as follows: • Group 1-1: THP-1 cells • Group 2-1: THP-1 cells with EA (at a dosage of 4 mg/kg) • Group 3-1: THP-1 cells with Na2EA (at a dosage of 4 mg/kg) • Group 1-2: MV4-11 cells • Group 2-2: MV4-11 cells with EA (at a dosage of 4 mg/kg) • Group 3-2: MV4-11 cells with Na2EA (at a dosage of 4 mg/kg)
(§3) On the 21st day of the test, peripheral blood was collected from the submandibular vein of the mice, and bone marrow was collected as well. The blood and bone marrow were stained with specific markers (CD33 and CD45) and then reacted with a fluorescent antibody, before the CD33+ or CD45^+-stained cells were quantified with a flow cytometer.

[7] = system: MV4-11 cells; test: Oxygen consumption rate of AML cells; format: cell-based, human; conditions: 150 μM
[8] = system: MV4-11 cells; test: Animal test, ASID mice transplanted with MV4-11 cells; format: in vivo; conditions: 4 mg/kg, intravenous, day 21
Method: as §2, §3

[9] = system: MV4-11 cells; test: Metabolite contents of AML cells (NADPH, ROS, ATP, pyruvate, NADH, glutamic acid); format: cell-based, human; conditions: 150 μM
Method: (§4) HL-60 cells, THP-1 cells, and MV4-11 cells were each divided into two groups, namely a vehicle group to be cultured in an RPMI culture medium and a group to be cultured in an RPMI culture medium containing 150 μM Na2EA. After culturing for 24 hours, the culture media were renewed. After culturing for another 48 hours, a commercially available apoptosis detection kit (Annexin V Apoptosis Detection Kit) and flow cytometer were used to analyze the apoptosis rates of the cells, and the results are shown in FIG. 34. In addition, a commercially available cell viability assay kit (CellTiter-Glo® 2.0 Cell Viability Assay Kit), a NAD/NADH-Glo™ assay kit, a commercially available intracellular ROS assay kit (#cat.MAK143, Sigma-Aldrich, St. Louis, MO, USA), and a commercially available pyruvate colorimetric/fluorometric assay kit were used to analyze the NADPH, ROS, and ATP contents of each group of cells, and the results are shown in FIG. 35 to FIG. 37.
(§5) Furthermore, the cells in each group were stained with ATP-Red Live Cell Dye (BioTracker™ ATP-Red Live Cell Dye) and were observed and quantified under a fluorescence microscope, with the quantification results shown in FIG. 38. The oxygen consumption rate of each group of cells was also determined in the same way as in example 6, with the introduction of different stress testing conditions, and the results are shown in FIG. 39 to FIG. 44.
(§6) Besides, the […], pyruvate, NAD^+, NADH, and glutamic acid contents of each group of cells were analyzed with a NAD/NADH-Glo™ assay kit, a commercially available pyruvate colorimetric/fluorometric assay kit, and a commercially available Glutamine/Glutamate-Glo™ assay kit (#Cat. J8021; Promega, Madison, WI, USA) in the same way as in example 9, and the results are shown in FIG. 45 to FIG. 48.

[10] = system: THP-1 cells; test: as above; format: cell-based, human; conditions: 150 μM
Method: as §4, §5, §6

[11] = system: HL-60 cells; test: as above; format: cell-based, human; conditions: 150 μM
Method: as §4, §5, §6

[12] = system: MV4-11 cells; test: Apoptosis rate (Annexin V, flow cytometer); format: cell-based, human; conditions: 150 μM
Method: as §4

[13] = system: THP-1 cells; test: Apoptosis rate (Annexin V, flow cytometer); format: cell-based, human; conditions: 150 μM
Method: as §4

[14] = system: HL-60 cells; test: Apoptosis rate (Annexin V, flow cytometer); format: cell-based, human; conditions: 150 μM
Method: as §4

[15] = system: THP-1 cells; test: Oxygen consumption rate of AML cells; format: cell-based, human; conditions: 150 μM

O=C(O)c1cc2ccccc2c(Cc2c([O-])c(C(=O)O)cc3ccccc23)c1[O-].[Na+].[Na+] [Na2EA, disodium embonate]
pIC50 [1]: ~3.92 | pIC50 [2]: ~3.92 | pIC50 [3]: ~3.92 | mitochondrial proton leak [4]: lowered | oxygen consumption rate [4]: lowered | yield of ATP by the mitochondrial electron transport chains [4]: lowered | fructose-6-phosphate (F-6-P) content [5]: suppress | glucose-1-phosphate (G-1-P) content [5]: suppress | glucose-6-phosphate (G-6-P) content [5]: suppress | glutamic acid content [5]: increasing | glutamine content [5]: increasing | AML cells in mice (CD33+ / CD45+ stained cells in peripheral blood and bone marrow) [6]: reduce | effectiveness in reducing AML cells compared with EA [6]: more effective in reducing AML cells than EA | mitochondrial proton leak [7]: lowered | oxygen consumption rate [7]: lowered | yield of ATP by the mitochondrial electron transport chains [7]: lowered | AML cells in mice (CD33+ / CD45+ stained cells in peripheral blood and bone marrow) [8]: reduce | effectiveness in reducing AML cells compared with EA [8]: more effective in reducing AML cells than EA | ATP content [9]: greatly reduced | NAD+/NADH ratio [9]: increased | NADH content [9]: reduced | NADPH content [9]: greatly reduced | ROS steady state [9]: destroyed | glutamic acid content [9]: increased | pyruvate content [9]: reduced | ATP content [10]: greatly reduced | NAD+/NADH ratio [10]: increased | NADH content [10]: reduced | NADPH content [10]: greatly reduced | ROS steady state [10]: destroyed | glutamic acid content [10]: increased | pyruvate content [10]: reduced | ATP content [11]: greatly reduced | NAD+/NADH ratio [11]: increased | NADH content [11]: reduced | NADPH content [11]: greatly reduced | ROS steady state [11]: destroyed | glutamic acid content [11]: increased | pyruvate content [11]: reduced | apoptosis rate [12]: 60-75% | apoptosis rate [13]: 60-75% | apoptosis rate [14]: 60-75% | mitochondrial proton leak [15]: lowered | oxygen consumption rate [15]: lowered | yield of ATP by the mitochondrial electron transport chains [15]: lowered
